Reference: ChEMBL document CHEMBL1131388, “Synthesis and antitumor activity of 4-phenyl-1-arylsulfonyl imidazolidinones” (Bioorg Med Chem Lett, 1998)

Columns and labels:
A549 = assay: Cytotoxicity against human lung carcinoma A549 cell line using MTT assay
K562 = assay: Cytotoxicity against human chronic myelogenous leukemia (K562) cell line using MTT assay; format: functional, cell-based
SK-OV-3 = assay: Cytotoxicity against human ovarian adenocarcinoma (SK-OV-3) cell line using MTT assay; format: functional, cell-based
NCI-H23 [1] = assay: Antitumor activity was evaluated against human lung carcinoma (NCI-H23) as body weight change in human tumor xenograft mice upon intraperitoneal administration at doses of 1,2,3mg/kg; format: functional
[2] = Antitumor activity was evaluated against Lewis lung carcinoma as tumor growth inhibition was determined in BDF1 mice upon intraperitoneal administration at a dose of 4 mg/kg; format: functional, Mus musculus
SW-620 [3] = assay: Antitumor activity was evaluated against human colon carcinoma (SW620) as tumor growth inhibition in human tumor xenograft mice upon intraperitoneal administration at doses of 1,2,3mg/kg; format: functional
Colon 26 [4] = assay: Antitumor activity was evaluated against murine colon carcinoma (Colon26) as tumor growth inhibition was determined in BALB/c mice upon intraperitoneal administration at a dose of 4 mg/kg; format: functional, Mus musculus
Colon 26 [5] = assay: Antitumor activity was evaluated against murine colon carcinoma (Colon26) as body weight change in BALB/c mice upon intraperitoneal administration at a dose of 4 mg/kg; format: functional, Mus musculus
[6] = Antitumor activity was evaluated against Lewis lung carcinoma as body weight change in BDF1 mice upon intraperitoneal administration at a dose of 4 mg/kg; format: functional, Mus musculus
NCI-H23 [7] = assay: Antitumor activity was evaluated against human lung carcinoma (NCI-H23) as tumor growth inhibition in human tumor xenograft mice upon intraperitoneal administration at doses of 1,2,3mg/kg; format: functional
SW-620 [8] = assay: Antitumor activity was evaluated against human colon carcinoma (SW620) as body weight change in human tumor xenograft mice upon intraperitoneal administration at doses of 1,2,3mg/kg; format: functional
Colon 26 [9] = assay: Antitumor activity was evaluated against murine colon carcinoma (Colon26) as tumor growth inhibition was determined in BALB/c mice upon peroral administration at a dose of 65 mg/kg; format: functional; details: Mus musculus, route oral, read-out: TGI
NCI-H23 [10] = assay: Antitumor activity was evaluated against human lung carcinoma (NCI-H23) as body weight change in human tumor xenograft mice upon peroral administration at a dose of 65 mg/kg; format: functional; details: route oral
SW-620 [11] = assay: Antitumor activity was evaluated against human colon carcinoma (SW620) as body weight change in human tumor xenograft mice upon peroral administration at a dose of 65 mg/kg; format: functional; details: route oral
[12] = Antitumor activity was evaluated against Lewis lung carcinoma as tumor growth inhibition was determined in BDF1 mice upon peroral administration at a dose of 100 mg/kg; format: functional; details: Mus musculus, route oral, read-out: TGI
Colon 26 [13] = assay: Antitumor activity was evaluated against murine colon carcinoma (Colon26) as body weight change in BALB/c mice upon peroral administration at a dose of 65 mg/kg; format: functional, Mus musculus; details: route oral
NCI-H23 [14] = assay: Antitumor activity was evaluated against human lung carcinoma (NCI-H23) as tumor growth inhibition in human tumor xenograft mice upon peroral administration at a dose of 65 mg/kg; format: functional; details: Mus musculus, route oral, read-out: TGI
SW-620 [15] = assay: Antitumor activity was evaluated against human colon carcinoma (SW620) as tumor growth inhibition in human tumor xenograft mice upon peroral administration at a dose of 65 mg/kg; format: functional; details: Mus musculus, route oral, read-out: TGI
[16] = Antitumor activity was evaluated against Lewis lung carcinoma as body weight change in BDF1 mice upon peroral administration at a dose of 100 mg/kg; format: functional, Mus musculus; details: route oral

Row | SMILES | IC50 (A549) | IC50 (K562) | IC50 (SK-OV-3) | other results
1 | O=C(c1ccc([N+](=O)[O-])cc1)N1CCc2cc(S(=O)(=O)N3CC(c4ccccc4)NC3=O)ccc21 (stereo not drawn) | 3.45 µM | 18 µM | 4.24 µM | –
2 | O=C(c1ccccc1)N1CCc2cc(S(=O)(=O)N3CC(c4ccccc4)NC3=O)ccc21 (stereo not drawn) | 0.44 µM | 4.12 µM | 0.56 µM | –
3 | O=C1NC(c2ccccc2)CN1S(=O)(=O)c1ccc2c(c1)CCC2 (stereo not drawn) | 4.74 µM | 42.7 µM | 12.1 µM | –
4 | O=C(Nc1ccc(Cl)cc1)NS(=O)(=O)c1ccc2c(c1)CCC2 [SULOFENUR] | 36.4 µM | 50.1 µM | 223 µM | –
5 | COc1cccc2c1C(=O)c1c(O)c3c(c(O)c1C2=O)C[C@@](O)(C(=O)CO)C[C@@H]3O[C@H]1C[C@H](N)[C@H](O)[C@H](C)O1 [DOXORUBICIN] | – | 1.77 µM | 4.15 µM | Body weight change (NCI-H23 [1]): -2.6 g; TCI [2]: 60.4%; TCI (SW-620 [3]): 49%; TCI (Colon 26 [4]): 42.5%; Body weight change (Colon 26 [5]): 3 g; Body weight change [6]: 2 g; TCI (NCI-H23 [7]): 39%; Body weight change (SW-620 [8]): -2.6 g
6 | Nc1ccc(C(=O)N2CCc3cc(S(=O)(=O)N4CC(c5ccccc5)NC4=O)ccc32)cc1 (stereo not drawn) | 0.2 µM | 0.44 µM | 1.24 µM | inhibition in vivo at 65 mg/kg (Colon 26 [9]): 55.6%; Body weight change (NCI-H23 [10]): 0.6 g; Body weight change (SW-620 [11]): 1 g; inhibition in vivo at 100 mg/kg [12]: 84.3%; Body weight change (Colon 26 [13]): 0.4 g; inhibition in vivo at 65 mg/kg (NCI-H23 [14]): 67%; inhibition in vivo at 65 mg/kg (SW-620 [15]): 87%; Body weight change [16]: -1 g
